Key:
[1] = target: T1, AMPK protein (recombinant α1β1γ2) (Homo sapiens, UniProt Q13131+Q9UGJ0+Q9Y478); assay: AMPK enzymatic activity (Delfia, AMARA peptide); format: biochemical; conditions: compound 30 μM vs AMP 30 μM; 125 μM ATP; direct activator if ratio is 90% or higher
T1 construct: made in house; host or cells: E. coli
Procedure: The following biological test allows the determination of the efficacy of such compounds of formula (I) onto AMPK protein (recombinant α1β1γ2).
Human recombinant AMPK enzyme was expressed in E. Coli and was reactivated in vitro by LKB1 prior to enzyme activity determination. AMPK enzyme activities were assayed by using A Delfia technology. AMPK enzyme activities were carried out in microtiter plates (50 mM Hepes buffer, pH 7.4 with 125 μM ATP respectively) in the presence of a synthetic peptide substrate (AMARAASAAALARRR, the “AMARA” peptide) and activators in serial dilutions. Reactions were initiated by the addition of AMPK (50-100 ng). Following mixing, the plates were incubated for 30 min at room temperature. Enzyme activity was assayed by using an anti-phosphoserine antibody to measure the quantity of phosphate incorporated into the AMARAA.
Ratio between the % of control (basal activity) of compound of formula (I) at 30 μM and the % of control (basal activity) of AMP (natural […]) at 30 μM.
Compounds of formula (I) are considered as direct activator of AMPK if the ratio is 90% or higher.

[2] = system: ob/ob and db/db mice; conditions: 8 day AICAR administration; cited from earlier work

T1 sequence (Q13131 whole entry): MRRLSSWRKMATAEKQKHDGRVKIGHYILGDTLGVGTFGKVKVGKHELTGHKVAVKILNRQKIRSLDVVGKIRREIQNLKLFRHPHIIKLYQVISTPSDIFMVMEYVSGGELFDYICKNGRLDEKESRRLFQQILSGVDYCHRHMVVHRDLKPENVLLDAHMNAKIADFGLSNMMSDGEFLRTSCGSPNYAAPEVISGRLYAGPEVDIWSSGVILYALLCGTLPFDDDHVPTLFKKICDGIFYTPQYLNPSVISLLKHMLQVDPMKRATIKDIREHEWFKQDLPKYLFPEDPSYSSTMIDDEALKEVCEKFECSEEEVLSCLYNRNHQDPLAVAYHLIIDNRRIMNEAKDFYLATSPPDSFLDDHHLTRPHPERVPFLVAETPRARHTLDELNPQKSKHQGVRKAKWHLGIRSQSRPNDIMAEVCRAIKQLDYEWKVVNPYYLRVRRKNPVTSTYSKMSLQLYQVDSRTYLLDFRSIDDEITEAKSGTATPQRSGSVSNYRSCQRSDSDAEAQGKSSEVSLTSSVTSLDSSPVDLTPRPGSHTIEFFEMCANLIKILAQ
T1 sequence (Q9Y478 whole entry): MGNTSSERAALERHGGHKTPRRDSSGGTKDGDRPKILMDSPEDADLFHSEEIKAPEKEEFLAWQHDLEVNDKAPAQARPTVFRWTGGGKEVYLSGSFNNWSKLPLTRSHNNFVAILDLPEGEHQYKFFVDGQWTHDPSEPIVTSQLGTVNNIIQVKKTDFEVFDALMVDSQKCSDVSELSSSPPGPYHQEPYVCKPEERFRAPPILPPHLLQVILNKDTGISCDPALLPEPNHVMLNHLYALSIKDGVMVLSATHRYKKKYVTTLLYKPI
T1 sequence (Q9UGJ0 whole entry): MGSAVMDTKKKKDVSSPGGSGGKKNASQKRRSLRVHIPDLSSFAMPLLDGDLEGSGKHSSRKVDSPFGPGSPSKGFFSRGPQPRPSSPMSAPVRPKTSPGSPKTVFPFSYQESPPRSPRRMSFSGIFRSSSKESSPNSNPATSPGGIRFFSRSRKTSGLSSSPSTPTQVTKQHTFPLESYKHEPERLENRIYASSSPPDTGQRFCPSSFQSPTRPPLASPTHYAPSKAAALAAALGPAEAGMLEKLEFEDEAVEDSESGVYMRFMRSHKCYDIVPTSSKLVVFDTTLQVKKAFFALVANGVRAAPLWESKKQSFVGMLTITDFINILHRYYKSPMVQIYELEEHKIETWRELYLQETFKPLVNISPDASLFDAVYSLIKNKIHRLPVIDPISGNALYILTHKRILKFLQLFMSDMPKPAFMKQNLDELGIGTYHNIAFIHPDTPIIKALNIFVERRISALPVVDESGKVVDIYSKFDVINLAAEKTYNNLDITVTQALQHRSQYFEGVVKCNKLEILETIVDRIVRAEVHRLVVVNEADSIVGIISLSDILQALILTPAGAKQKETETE

Activity: ratio between the % of control (basal activity) of compound at 30 μM and the % of control (basal activity) of AMP at 30 μM [1] [%]	SMILES	reduction of blood glucose [2] [%]
120	CC(=O)Oc1cccc2[nH]c(=O)c(=O)[nH]c12 [Acetic acid 2,3-dioxo-1,2,3,4-tetrahydro-quinoxalin-5-yl ester]	–
130	O=c1[nH]c2cccc(O)c2[nH]c1=O [5-hydroxy-1,4-dihydroquinoxaline-2,3-dione]	–
–	NC(=O)c1ncn([C@@H]2O[C@H](CO)[C@@H](O)[C@H]2O)c1N [AICAR]	35
